Test [1] deals with T1, vimentin (Homo sapiens, UniProt P08670). Kind of test: ELISA-like binding assay to vimentin. As for the experimental part:
To identify minimum pharmacophore of JM3A (the most important residues directly needed for protein binding), an alanine/sarcosine scan was done.
Next, Applicant compared binding activity between L2 (D-ala) and JM3ABPD1 by employing ELISA-like binding assay in a concentration between 10 nM to 10 μM.
(In general: ELISA stands for enzyme-linked immunosorbent assay.)

Test [2] relates to H1299 cells. Kind of test: wound healing (cell migration) assay. Set-up: inhibition of cell migration: dose or concentration left out as unconfirmed. Format: cell-based. As for the experimental part:
FIGS. 22A-22B provide data related to the characterization of L2 (D-ala), JM3A-BPD1, and JM3A-BP. […] H1299 cells were cultured to form a monolayer in 24-well plate. A scratch was made and wells were treated with L2 (D-ala), JM3A-BPD1. […]
Since vimentin has been identified as an important biomarker of mesenchymal cells during the epithelial-mesenchymal transition (EMT) process. The EMT process can endow epithelial cells with stemness as well as invasion and migration properties. Therefore, Applicant would like to investigate how L2 (D-ala) targeting vimentin can impact cancer stem cells activity. The wound-healing assay indicates the mobility/motility of cells, which is a hallmark measurement of cancer stem cells. The L2 (D-ala), JM3A-BPD1, JM3A-BP, and control compound were used to study the effects on cell migration via wound healing assay. […] Both JM3A-BP monomer and control compounds had no effect on cell migration.

Test [3] relates to H460 cells. Kind of test: colony formation assay. Format: cell-based. The following applies: for colony formation: 7 days, at 20 μM. As for the experimental part: FIGS. 23A-23B provide additional data related to the characterization of L2 (D-ala), JM3A-BPD1, and JM3A-BP. […] FIG. 23B provides a quantification of the colonies after a 7-day incubation treatment.
Colony formation is a standard assay to assess the activity of cancer stem cells. When cancer cells are seeded in a low number, normal cancer cells die due to the loss of cell-cell communications while cancer stem cells can survive and form colonies in isolation. Applicant performed colony formation assay on H460 cells to study how L2 (D-ala) can affect cancer stem cells activity. The H460 cells were seeded and treated with L2 (D-ala), JM3A-BPD1, JM3A-BP, and control compounds from day 1. After 7 days of incubation, colonies were carefully counted and plotted.

The test system of test [4] is HBEC3^p53,KRAS,cMYC cells. The test is described as follows: on-bead cell binding, transformed cells. Format: cell-based, human. Conditions: JM3A on tentagel beads, red stained cells, separately and as mixture. The text has this: (§1) The compound JM3A was resynthesized on tentagel beads and equilibrated with HBEC3^p53,KRAS,cMYC (red stained) cells and HBEC3-KT (green stained) cells separately and also as a mixture.

The test system of test [5] is HBEC3-KT cells. Kind of test: on-bead cell binding, normal cells. Format: cell-based, human. Conditions: JM3A on tentagel beads, green stained cells, separately and as mixture.
Source text: as §1

Test [6] deals with Vimentin protein (His-tag) (Homo sapiens, UniProt P08670). Kind of test: on bead protein binding assay. The following applies: anti-His Alexa 647 detection. As for the experimental part: To reconfirm the JM3A-vimentin interaction, an on bead protein binding assay was performed. Vimentin protein (His-tag) was screened with compound JM3A (on tentagel beads) and visualized using a secondary antibody (Anti-His Alexa 647) (FIG. 9A).
Sequence of Vimentin protein (His-tag) (P08670 whole entry): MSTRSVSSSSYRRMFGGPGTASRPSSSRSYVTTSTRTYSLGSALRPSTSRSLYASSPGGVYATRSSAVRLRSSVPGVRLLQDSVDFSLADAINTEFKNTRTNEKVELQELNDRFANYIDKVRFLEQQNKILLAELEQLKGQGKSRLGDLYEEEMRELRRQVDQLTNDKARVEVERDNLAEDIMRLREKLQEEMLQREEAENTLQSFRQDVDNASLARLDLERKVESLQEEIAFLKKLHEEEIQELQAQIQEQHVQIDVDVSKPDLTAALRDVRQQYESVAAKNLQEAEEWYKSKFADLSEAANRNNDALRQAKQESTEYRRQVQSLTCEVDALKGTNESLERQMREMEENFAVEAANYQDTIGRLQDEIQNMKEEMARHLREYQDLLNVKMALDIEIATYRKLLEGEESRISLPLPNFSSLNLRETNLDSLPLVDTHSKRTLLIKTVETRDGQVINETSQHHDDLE

Test [7] has as its target T2, commercially available vimentin protein (Homo sapiens, UniProt P08670).
T2 construct: purchased
The test is described as follows: magnetic-bead pulldown and western blot with commercially available vimentin protein. Format: binding. The following applies: western blot. An excerpt: To further confirm of JM3A specificity, the western blot assay was repeated using commercially available vimentin protein (FIG. 10B). […] This JM3A bound band disappeared when this binding was competed (blocked) with 10× free JM3A, and 5× free vimentin antibody. […] The results were further confirmed by running pure protein as reference band and JM3A transformed cells pulldown proteins.

In test [8] the test system is vimentin expressing cells. The test is described as follows: magnetic bead pulldown of cells with quantification. Conditions: HBEC3^p53,KRAS,cMYC vs HBEC3-KT; NAD(P)H, dityrosine, MTS readout. Format: cell-based, human. As to the method: JM3A can be utilized as an early cancer biomarker to develop simple diagnostic tools such as reading the cells auto fluorescence markers or quantifying the cells using MTS assay. Applicant performed the pulldown assay using JM3A to HBEC3-KT and HBEC3^p53,KRAS,cMYC cells. The Biotin-JM3A compound was mounted on streptavidin coated magnetic beads and 1 million cells (HBEC3-KT and HBEC3^p53,KRAS,cMYC cells each) were incubated for 1 hour. Next, bound cells were pulled using magnet.
The difference of number of cells pulled down were quantified for NAD (P) H (FIG. 11A) and Dityrosine (FIG. 11B) expression. Also to the pulldown cells MTS reagent was added and number of cells were quantified (FIG. 11C).

For test [9], the target named is T1, vimentin. The test is described as follows: cross-linking, magnetic-bead pulldown and western blot on cells. More on the design: from tissue; host or cells: human early cancer tissue and normal tissue cross-sections. Format: binding. The following applies: western blot. As to the method:
For pulldown assay, the JM3A compound was synthesized with Biotin on C-terminal and benzophenone on its N-terminal (FIG. 7A). The compound was first mounted on streptavidin magnetic beads, followed by incubation of the cells HBEC3^p53,KRAS,cMYC and HBEC3-KT for 1 hour. Bound cells were separated using magnetic beads and cross-linked using UV. The cells were then lysed, and the proteins were separated by electrophoresis and visualized by silver staining (FIG. 7B). The unique band at around 60 kDa in the JM3A-bound sample, which was not present in whole cell lysis of HBEC3-KT cells or in the Control-PC462 compound pulldown, was analyzed by standard proteomics technique.
To reconfirm the JM3A-vimentin interaction, western blot analysis of samples from cross-linking and magnetic-bead pulldown assay with normal cells (HBEC3-KT) and transformed cells (HBEC3^p53,KRAS,cMYC) were performed (FIG. 10A). Pulldown assay was performed on normal and transformed cells using JM3A and control PC462. All the pulldown fractions were run on western-blot and compared with whole-cell lysis of HBEC3-KT and HBEC3^p53,KRAS,cMYC cells.
(In general: In western blotting, separated proteins are transferred to a membrane and probed.)

For test [10], the target named is T1, vimentin. The test is described as follows: immunohistochemical detection of vimentin in tissues. More on the design: from tissue; host or cells: human early cancer tissue and normal tissue cross-sections. Conditions: IHC. As to the method: In a more clinically applicable set up, Applicant detected vimentin expression using JM3A in early cancer tissues from human samples using immunohistochemistry (IHC) experiments. Biotin-JM3A was incubated with those tumor tissue cross-sections compared to normal tissues for 1 hour and visualized by streptavidin Q-dots 655 under fluorescent microscope using Long-pass filter (FIG. 11D).

Test [11] relates to H1299 cells. The format is cell-based. As to the method: Next, Applicant evaluated the anti-proliferative activity of these peptoid dimers via standard MTS assays on non-small cell lung cancer (NSCLC) H1299 cells, which have high vimentin expression.
After 18 hours, the activity reached the maximum (IC50˜6 μM) (FIG. 21C).

Test [12] concerns H460. The test is described as follows: MTS assay on H460 cells. Format: cell-based. The following applies: H460, vimentin high expression. An excerpt:
(§2) In order to investigate the broader applicability of vimentin targeting in NSCLC cells, Applicant performed the same MTS studies on different lung cancer models with various vimentin expressions. These cell lines included H460 (Carcinoma, large cell lung cancer), H2009 (Adenocarcinoma, Stage 4), H358 (Bronchioalveolar Carcinoma, NSCLC), H2122 (Adenocarcinoma, NSCLC), and normal bronchial epithelial HBEC3KT cells.
On the technique in general: Formazan colour is commonly taken as a measure of viable cells.

Test [13] deals with H2009. Kind of test: MTS assay on H2009 cells. Format: cell-based. Conditions: H2009, vimentin moderate expression.
Source text: as §2

Test [14] has as its system H358. Kind of test: MTS assay on H358 cells. The format is cell-based. The following applies: H358, vimentin moderate expression.
Source text: as §2

Test [15] relates to H2122. Kind of test: MTS assay on H2122 cells. The format is cell-based. Conditions: H2122, vimentin low expression.
Source text: as §2

For test [16], the system named is normal bronchial epithelial HBEC3KT cells. The test is described as follows: MTS assay on normal bronchial epithelial cells. The format is cell-based, human.
Source text: as §2

Molecules are shown by their SMILES. Numbered stars: 1 amine (or outer) side, 2 acyl side, 3 side chain; on linkers, the order of the positions; unused ones are H or OH. Bridge positions count the residues as written; N and C are the ends. Square brackets hold non-standard residues; d marks the D form. Peptide text beside a SMILES is read from it. I, II: the chains in the order shown. X1 = O=C(c1ccccc1)c1cccc(N(CC(=O)[*:2])[*:1])c1; N(4-BzPh)Gly = O=C(O)CNc1ccc(C(=O)c2ccccc2)cc1; Gly(N-piperonyl) = O=C(O)CNCc1ccc2c(c1)OCO2; Nleu = CC(C)CNCC(=O)O; Nlys = NCCCCNCC(=O)O; Nme = COCCNCC(=O)O; Sar = CNCC(=O)O

In general, IC50 refers to the midpoint of a concentration-inhibition curve.

T1 sequence (P08670 whole entry): as above
T2 sequence (P08670 whole entry): as above

As to `COCCN(CC(=O)NC(CCCCN)C(=O)NC(CCSC)C(N)=O)C(=O)CN(C)C(=O)CN(CC(C)C)C(=O)CN(CCCCN)C(=O)CN(CCCCN)C(=O)CN(C)C(=O)CNc1ccc(C(=O)c2ccccc2)cc1` (stereo not shown) [JM3A-4,8-BP] (H-[N(4-BzPh)Gly][Sar][Nlys][Nlys][Nleu][Sar][Nme]KM-NH2; configuration not given here), the “binding to vimentin (in words)” value in [1] (comparison of derivatives) is on record as “highest binding affinity”.
Take `COCCN(CC(=O)NC(CCCCN)C(=O)NC(CCSC)C(=O)NCCCCC(NC(=O)C(CCSC)NC(=O)C(CCCCN)NC(=O)CN(CCOC)C(=O)CN(Cc1ccc2c(c1)OCO2)C(=O)CN(CC(C)C)C(=O)CN(CCCCN)C(=O)CN(CCCCN)C(=O)CN(CC(C)C)C(=O)CNc1ccc(C(=O)c2ccccc2)cc1)C(N)=O)C(=O)CN(Cc1ccc2c(c1)OCO2)C(=O)CN(CC(C)C)C(=O)CN(CCCCN)C(=O)CN(CCCCN)C(=O)CN(CC(C)C)C(=O)CNc1ccc(C(=O)c2ccccc2)cc1` (stereo not shown) [JM3A-BPD1] (I: H-[N(4-BzPh)Gly][Nleu][Nlys][Nlys][Nleu][Gly(N-piperonyl)][Nme]KMK-NH2 / II: H-[N(4-BzPh)Gly][Nleu][Nlys][Nlys][Nleu][Gly(N-piperonyl)][Nme]KM; amide I:10-II:C; configuration not given here): the “inhibition of cell migration” value in [2] was “moderately inhibit”. In test [3], the colony formation result was “some colony disruption”.
Turning to `COCCN(CC(=O)NC(CCCCN)C(=O)NC(CCSC)C(N)=O)C(=O)CN(Cc1ccc2c(c1)OCO2)C(=O)CN(CC(C)C)C(=O)CN(CCCCN)C(=O)CN(CCCCN)C(=O)CNCC(C)C` (stereo not shown) [JM3A] (H-[Nleu][Nlys][Nlys][Nleu][Gly(N-piperonyl)][Nme]KM-NH2; configuration not given here), the “binding of beads to cells” value in [4] is reported as “bound only to red stained cells”; in test [5], “not to green stained cells”. Besides, the “binding of histidine-tagged vimentin to on-bead compound” value in test [6] was “showed binding”. In addition, the “interaction with and pulldown of vimentin protein” value in test [7] is “strong interaction and pulldown of vimentin protein”. Besides, in [8], the “pulldown of vimentin expressing cells” value was “can be pulled down”. In addition, the “pulldown of vimentin protein” value is “not in normal cells” in [9] (normal cells (HBEC3-KT)) and “pulldown only with JM3A in transformed cells” in test [9] (transformed cells (HBEC3^p53,KRAS,cMYC)). Besides, the “detection of vimentin overexpression” value is “present” in [10] (early cancer tissues) and “absent” in test [10] (normal tissues).
Regarding `COCCN(CC(=O)N[C@@H](CCCCN)C(=O)N[C@H](C)C(=O)NCC(=O)NCCCC[C@H](NC(=O)CNC(=O)[C@@H](C)NC(=O)[C@H](CCCCN)NC(=O)CN(CCOC)C(=O)CN(Cc1ccc2c(c1)OCO2)C(=O)CN(CC(C)C)C(=O)CN(CCCCN)C(=O)CN(CCCCN)C(=O)CN(CC(C)C)C(=O)CNc1cccc(C(=O)c2ccccc2)c1)C(N)=O)C(=O)CN(Cc1ccc2c(c1)OCO2)C(=O)CN(CC(C)C)C(=O)CN(CCCCN)C(=O)CN(CCCCN)C(=O)CN(CC(C)C)C(=O)CNc1ccc(C(=O)c2ccccc2)cc1` [L2 (D-ala)] (I: H-[X1][Nleu][Nlys][Nlys][Nleu][Gly(N-piperonyl)][Nme]K[dA]GK-NH2 / II: H-[N(4-BzPh)Gly][Nleu][Nlys][Nlys][Nleu][Gly(N-piperonyl)][Nme]K[dA]G; amide I:11-II:C; N-terminus and C-terminus assumed), the “Kd improvement relative to JM3A-BPD1” value in test [1] (10 nM to 10 μM) is recorded as “approximately 10 times”. For the same compound, the “effect of extension of treatment time on proliferation” value in [11] (H1299 cells, after 18 hours) is recorded as “no significant impact”. The “anti-proliferation potency (in words)” value in test [11] (H1299 cells, treatment 6 hours) was “improvement in potency”. The “anti-proliferation activity (in words)” value is reported as “best activity” in test [12]; “medium activity” in test [13]; “medium activity” in test [14]; “lowest activity” in test [15]; “inactivity” in test [16]. For the same compound, the “concentration from which cell migration is inhibited” value in test [2] was found to be 3 µM. Further, the “inhibition of cell migration” value in test [2] is reported as “significantly inhibit”. Moreover, the “concentration from which colony formation is disrupted” value in test [3] (7 days of incubation) worked out at 1 µM. In addition, the colony formation result in [3] was “inhibit all colonies”.
In the case of `COCCN(CC(=O)N[C@@H](CCCCN)C(=O)N[C@@H](CCSC)C(=O)NCC(=O)NCCCC[C@H](NC(=O)CNC(=O)[C@H](CCSC)NC(=O)[C@H](CCCCN)NC(=O)CN(CCOC)C(=O)CN(Cc1ccc2c(c1)OCO2)C(=O)CN(CC(C)C)C(=O)CN(CCCCN)C(=O)CN(CCCCN)C(=O)CN(CC(C)C)C(=O)CNc1ccc(C(=O)c2ccccc2)cc1)C(N)=O)C(=O)CN(Cc1ccc2c(c1)OCO2)C(=O)CN(CC(C)C)C(=O)CN(CCCCN)C(=O)CN(CCCCN)C(=O)CN(CC(C)C)C(=O)CNc1ccc(C(=O)c2ccccc2)cc1` [L2] (I: H-[N(4-BzPh)Gly][Nleu][Nlys][Nlys][Nleu][Gly(N-piperonyl)][Nme]KMGK-NH2 / II: H-[N(4-BzPh)Gly][Nleu][Nlys][Nlys][Nleu][Gly(N-piperonyl)][Nme]KMG; amide I:11-II:C), the IC50 in test [11] is approximately 6 µM.
